# Like-named read-outs stand apart in the source and are kept apart here.
# How the values were obtained:
# [1] = tested on: BaF3 cells expressing ruxolitinib-resistant JAK2-V617F variants; test: Dose-response analyses with ruxolitinib-resistant variants; assay type: cell-based; settings: with or without IL-3
# Experimental: Ba/F3 cells expressing mutant BCR-ABL proteins were plated in 96-well plates (0.5–1 × 10^4 cell per well) in RPMI medium containing 10% FCS and lacking IL-3. Kinase inhibitors were included in the media at varying concentrations. After 60 hours, the number of viable cells was assessed using WST-1 reagent (Roche Applied Science, USA), according to the manufacturer’s specifications. Assays were performed in quadruplicate.
# [2] = tested on: BaF3 cells expressing JAK2-V617F/L983F; test: BaF3 cell proliferation dose-response; assay type: cell-based; settings: variant L983F in JAK2-V617F
# JAK2 kinase domain L983F = target: T1, JAK2 kinase domain L983F (Mus musculus, UniProt Q62120, L983F); test: Dose response of purified kinase domain; assay type: biochemical
# T1 construct: made in house; host or cells: Spodoptera frugiperda Sf9 (baculovirus)
# Experimental: (§1) Proteins were expressed in Spodoptera frugiperda, Sf9 cells. […] Each point mutants was confirmed by sequence analysis. […] All purification steps were carried out at 4 °C.
# JAK2 kinase domain E930G = target: T2, JAK2 kinase domain E930G (Mus musculus, UniProt Q62120, E930G); test: Dose response of purified kinase domain; assay type: biochemical
# T2 construct: made in house; host or cells: Spodoptera frugiperda Sf9 (baculovirus)
# Experimental: as §1
# [3] = tested on: phospho-STAT5 in JAK1-transduced cells; test: Phospho-STAT5 inhibition in transduced BaF3 cells; assay type: cell-based; settings: Mus musculus
# Experimental: (§2) Assays were performed in quadruplicate.
# [4] = tested on: BaF3 cells expressing JAK2-V617F/Y931C/I1018F; test: BaF3 cell proliferation dose-response; assay type: cell-based; settings: Mus musculus, BaF3, read-out: IC50, cell proliferation
# [5] = tested on: BaF3 cells expressing JAK2-V617F/Y931C/F1019L; test: BaF3 cell proliferation dose-response; assay type: cell-based; settings: Mus musculus, BaF3, read-out: IC50, cell proliferation
# [6] = tested on: BaF3 cells expressing JAK2-V617F/Y931C/S1025C; test: BaF3 cell proliferation dose-response; assay type: cell-based; settings: Mus musculus, BaF3, read-out: IC50, cell proliferation
# [7] = tested on: BaF3 cells expressing JAK2-V617F; test: Soft-agar colony assay; assay type: cell-based
# [8] = tested on: TEL-JAK1-expressing BaF3 cells; test: Soft-agar colony assay; assay type: cell-based
# [9] = tested on: BaF3 cells expressing JAK2-V617F/Y931C/W1020C; test: BaF3 cell proliferation dose-response; assay type: cell-based; settings: Mus musculus, BaF3, read-out: IC50, cell proliferation
# [10] = tested on: BaF3 cells expressing JAK2-V617F/Y931C/Y1045W; test: BaF3 cell proliferation dose-response; assay type: cell-based; settings: Mus musculus, BaF3, read-out: IC50, cell proliferation
# [11] = tested on: BaF3 cells expressing JAK2-V617F/Y931C/V1075F; test: BaF3 cell proliferation dose-response; assay type: cell-based; settings: Mus musculus, BaF3, read-out: IC50, cell proliferation
# [12] = tested on: BaF3 cells expressing JAK2-V617F/Y931C/F1061W; test: BaF3 cell proliferation dose-response; assay type: cell-based; settings: Mus musculus, BaF3, read-out: IC50, cell proliferation
# [13] = tested on: phospho-STAT5 in BaF3 cells expressing JAK2-V617 variant L983F; test: Immunoblot analysis of phospho-STAT5; assay type: cell-based
# [14] = tested on: BaF3 cells expressing JAK2-V617F/Y931C/S1039F; test: BaF3 cell proliferation dose-response; assay type: cell-based; settings: Mus musculus, BaF3, read-out: IC50, cell proliferation
# [15] = tested on: phospho-STAT5 in JAK3-transduced cells; test: Phospho-STAT5 inhibition in transduced BaF3 cells; assay type: cell-based; settings: Mus musculus
# [16] = tested on: BaF3 cells expressing JAK2-V617F; settings: read-out: IC50, cell proliferation
# [17] = tested on: BaF3 cells expressing JAK2-V617F/Y931C/W1038C; test: BaF3 cell proliferation dose-response; assay type: cell-based; settings: Mus musculus, BaF3, read-out: IC50, cell proliferation
# [18] = tested on: BaF3 cells expressing TEL-JAK2; test: BaF3 cell proliferation dose-response; assay type: cell-based; settings: receptor-free fully activated JAK2 (TEL-JAK2); data not shown
# Experimental: as §2
# [19] = tested on: TEL-JAK3-expressing BaF3 cells; test: Soft-agar colony assay; assay type: cell-based
# [20] = tested on: BaF3 cells expressing JAK2-V617F/Y931C/Y1045*; test: BaF3 cell proliferation dose-response; assay type: cell-based; settings: Mus musculus, BaF3, read-out: IC50, cell proliferation
# [21] = tested on: BaF3 cells expressing JAK2-V617F; test: cells; settings: Mus musculus, BaF3, read-out: IC50, cell proliferation, BaF3 JAK2-V617F
# [22] = tested on: BaF3 cells transduced with randomly mutagenized JAK2-V617F; test: In vitro drug-resistance screen, random mutagenesis; assay type: cell-based; settings: ruxolitinib at 1, 2 and 5 μM; fedratinib at 2-fold above IC50
# Experimental: To generate random mutation library of Jak2-V617F, E. coli XL1-red cells were transformed with one μg of JAK2-V617F plasmid DNA. More specifically, 50–100 ng of DNA (more than 100 ng of DNA decreases transformation efficiency) was mixed with 100 μl of competent cells in a pre-chilled polypropylene tube and incubated on ice for 30 min, gently swirling every 5 min. For a good library, four to six tubes of competent cells are used. Cells from each tube were plated on four 10 cm LB-agar plates containing 100-μg/ml ampicillin. Plates were incubated at 37 °C for 18–24 hours. When colonies became visible (18–24 hrs), cells were pooled from each plates and plasmid DNA was isolated using the Qiagen’s midiprep kit. At this stage, the heterogeneity of mutations in the library can be roughly assessed by restriction digestion with a frequent cutter such as Sau3A1 or Taq1 or sequencing.
# To select resistant clones of JAK2-V617F, high titer retroviruses were produced as describe. One hundred million native BAF3 cells were transduced with 100 ml of virus supernatants having a viral titer of 0.5–1 × 10^6. […] We observed that the overexpression of EPOR or MPL tend to loose dependence on Jak2 resulting to emergence of false-positives[58]. More specifically, 100 × 10^6 cells were mixed with 100 ml of virus supernatant and 100 ml of RPMI, containing 10% serum and 24 μg/ml of polyberene. […]
# [23] = tested on: BaF3 cells expressing JAK2-V617F/Y931C/L1026F; test: BaF3 cell proliferation dose-response; assay type: cell-based; settings: Mus musculus, BaF3, read-out: IC50, cell proliferation
# [24] = tested on: BaF3 cells expressing luciferase and JAK2-V617F; test: In vivo efficacy, leukemic burden by bioluminescence; settings: 100 mg/kg twice daily, IP, two weeks
# [25] = design: method as in PMID 21257798; settings: at 100 mg/kg; cited from earlier work
# [26] = tested on: BaF3 cells expressing luciferase and JAK2-V617F/L983F; test: In vivo efficacy, leukemic burden by bioluminescence; settings: 100 mg/kg twice daily, IP, two weeks
# T2 sequence (Q62120 849-1124 E930G limits assumed): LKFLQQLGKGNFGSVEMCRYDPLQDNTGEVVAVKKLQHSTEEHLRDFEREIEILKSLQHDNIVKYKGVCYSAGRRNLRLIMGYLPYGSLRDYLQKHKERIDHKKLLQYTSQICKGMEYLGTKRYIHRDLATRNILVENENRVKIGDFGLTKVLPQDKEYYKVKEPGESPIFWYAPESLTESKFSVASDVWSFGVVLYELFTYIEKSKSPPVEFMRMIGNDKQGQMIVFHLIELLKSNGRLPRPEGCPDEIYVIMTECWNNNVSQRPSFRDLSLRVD
# T1 sequence (Q62120 849-1124 L983F limits assumed): as the sequence (Q62120 849-1124 E930G limits assumed) above, with G82E, L135F counted along it
smiles,measurement,setting,value
Cc1cc(Nc2nc(N[C@@H](C)c3ncc(F)cn3)ncc2Cl)n[nH]1 [AZD1480],resistance of ruxolitinib-resistant variants,[1],cross-resistance
same,resistance or sensitivity of variant L983F,[2],resistance
N#CCNC(=O)c1ccc(-c2ccnc(Nc3ccc(N4CCOCC4)cc3)n2)cc1 [CYT-387],resistance or sensitivity of purified kinase domain,JAK2 kinase domain L983F,sensitive
same,resistance or sensitivity of purified kinase domain,JAK2 kinase domain E930G,sensitive
same,resistance of ruxolitinib-resistant variants,[1],cross-resistance
same,resistance or sensitivity of variant L983F,[2],full sensitivity
Cc1cnc(Nc2ccc(OCCN3CCCC3)cc2)nc1Nc1cccc(S(=O)(=O)NC(C)(C)C)c1 [fedratinib],IC50,[3],> 10 µM
same,IC50,[4],1.49 µM
same,IC50,[5],1.03 µM
same,IC50,[6],2.31 µM
same,concentration above which cells failed to grow,[7],3 µM
same,concentration up to which colony growth is supported,[8],6 µM
same,IC50,[9],1.01 µM
same,IC50,[10],2.11 µM
same,IC50,[11],2.25 µM
same,resistance of ruxolitinib-resistant variants,[1],complete lack of resistance
same,IC50,[12],1.98 µM
same,phospho-STAT5 inhibition (immunoblot),[13],dose-dependent inhibition
same,IC50,[14],1.65 µM
same,IC50,[15],> 5 µM
same,IC50,[16],~0.9 µM
same,IC50,[17],1.58 µM
same,increase in hypersensitivity of TEL-JAK2 in comparison to JAK2-V617F,[18],~ 3 fold
same,concentration up to which colony growth is supported,[19],4 µM
same,IC50,[20],1.68 µM
same,IC50,[21],1.07 µM
same,emergence of resistant clones,[22],did not result in any resistant clones
same,IC50,[23],1.69 µM
C[C@]12O[C@H](C[C@]1(O)CO)n1c3ccccc3c3c4c(c5c6ccccc6n2c5c31)CNC4=O [lestaurtinib],resistance of ruxolitinib-resistant variants,[1],cross-resistance
same,resistance or sensitivity of variant L983F,[2],resistance
N#CC[C@H](C1CCCC1)n1cc(-c2ncnc3[nH]ccc23)cn1 [ruxolitinib],effect on transplanted cells (leukemic burden),[24],eradicated
same,Cmax,[25],4.4 µM
same,effect on transplanted cells (leukemic burden),[26],ineffective
